The results in this text go back to PubChem BioAssay AID248 (DTP/NCI, 2004).

Molecules are shown by their SMILES. Where “and” joins values, the source holds several entries; their conditions need not be identical. Identical values can stand only once. Toxic doses and inconclusive results are not listed.

This test has as its system L1210 leukemia ip in BDF1 mice, survival T/C. The test is described as follows: NCI In Vivo Anticancer Drug Screen. Data for tumor model L1210 Leukemia (intraperitoneal) in B6D2F1 (BDF1) mice. The settings on record: endpoint: mean survival time, higher = longer survival. The essentials: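 Survival endpoint. Drug-treated group vs vehicle group, expressed as T divided by C. Tumor passaged by transplantation.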

Where [1] appears, read: dose: 100.0 mg/kg/injection, schedule: Q01DX001 (ip), vehicle: carboxymethylcellulose (CMC).
Where [2] appears, read: dose: 200.0 mg/kg/injection, schedule: Q01DX001 (ip), vehicle: carboxymethylcellulose (CMC).
Where [3] appears, read: dose: 400.0 mg/kg/injection, schedule: Q01DX001 (ip), vehicle: carboxymethylcellulose (CMC).
[4] abbreviates: dose: 100.0 mg/kg/injection, schedule: Q01DX009 (ip), vehicle: Klucel (hydroxypropylcellulose) (HPC).
Setting [5] is: dose: 100.0 mg/kg/injection, schedule: Q04DX003 (ip), vehicle: Klucel (hydroxypropylcellulose) (HPC).
Setting [6] is: dose: 200.0 mg/kg/injection, schedule: Q01DX009 (ip), vehicle: Klucel (hydroxypropylcellulose) (HPC).
Setting [7] is: dose: 200.0 mg/kg/injection, schedule: Q04DX003 (ip), vehicle: Klucel (hydroxypropylcellulose) (HPC).
Where [8] appears, read: dose: 400.0 mg/kg/injection, schedule: Q01DX009 (ip), vehicle: Klucel (hydroxypropylcellulose) (HPC).
The mark [9] stands for this setting: dose: 400.0 mg/kg/injection, schedule: Q04DX003 (ip), vehicle: Klucel (hydroxypropylcellulose) (HPC).
Setting [10] is: dose: 25.0 mg/kg/injection, schedule: Q01DX009 (ip), vehicle: saline with Tween-80.
[11] abbreviates: dose: 100.0 mg/kg/injection, schedule: Q04DX003 (ip), vehicle: saline.

On to `CC(C)c1ccc(-n2c(=S)[nH]c3ccccc3c2=O)cc1`, for which the T/C was 107 % of control (dose: 100.0 mg/kg/injection, schedule: Q04DX002 (ip), vehicle: saline); 93 % of control (dose: 200.0 mg/kg/injection, schedule: Q04DX002 (ip), vehicle: saline); 104 % of control (dose: 400.0 mg/kg/injection, schedule: Q04DX002 (ip), vehicle: saline).
As for `C/C(=N\O)c1ccc2nc(C)cc(Cl)c2c1`, the T/C reads like this: (dose: 100.0 mg/kg/injection, schedule: Q01DX001 (ip), vehicle: saline) 102 % of control; (dose: 200.0 mg/kg/injection, schedule: Q01DX001 (ip), vehicle: saline) 109 % of control; (dose: 400.0 mg/kg/injection, schedule: Q01DX001 (ip), vehicle: saline) 95 % of control.
Turning to `O=C(O)c1ccccc1Cc1ccc2c(c1)Cc1ccccc1-2`, the T/C by setting is: under setting [1], 92 % of control; under setting [2], 94 % of control; under setting [3], 113 % of control.
Take `CC(=O)CC(=O)Nc1ccc(Cl)cc1Cl`: the T/C reads like this: under setting [4], 100 % of control; under setting [5], 98 % of control; under setting [6], 102 % of control; under setting [7], 91 % of control; under setting [8], 98 % of control; under setting [9], 93 % of control.
For the molecule `CCOC(=O)C1CC2CCC1CC2` (centres undefined), the T/C is, setting by setting: (dose: 25.0 mg/kg/injection, schedule: Q01DX005 (ip), vehicle: saline with Tween-80) 92 % of control; under setting [10], 102 % of control; (dose: 25.0 mg/kg/injection, schedule: Q04DX002 (ip), vehicle: saline with Tween-80) 106 % of control; (dose: 50.0 mg/kg/injection, schedule: Q01DX005 (ip), vehicle: saline with Tween-80) 92 % of control; (dose: 50.0 mg/kg/injection, schedule: Q01DX009 (ip), vehicle: saline with Tween-80) 94 % of control; (dose: 50.0 mg/kg/injection, schedule: Q04DX002 (ip), vehicle: saline with Tween-80) 94 % of control. Also, the T/C reads like this: (dose: 100.0 mg/kg/injection, schedule: Q01DX005 (ip), vehicle: saline with Tween-80) 89 % of control; (dose: 100.0 mg/kg/injection, schedule: Q01DX009 (ip), vehicle: saline with Tween-80) 109 % of control; (dose: 100.0 mg/kg/injection, schedule: Q04DX002 (ip), vehicle: saline with Tween-80) 97 % of control and 103 % of control.
`CCCCCCCCCCCCCCCCCC(=O)OCCC(C)CCCC(C)C` (centres undefined): the T/C (dose: 100.0 mg/kg/injection, schedule: Q04DX003 (ip), vehicle: other) was 96 % of control; the T/C (dose: 200.0 mg/kg/injection, schedule: Q04DX003 (ip), vehicle: other) was 98 % of control; the T/C (dose: 400.0 mg/kg/injection, schedule: Q04DX003 (ip), vehicle: other) was 88 % of control.
In the case of `CNC(=S)N/N=C(/C)C(=O)O`, the T/C under setting [4] was 96 % of control; the T/C under setting [5] was 96 % of control; the T/C under setting [6] is 96 % of control; the T/C under setting [7] was 91 % of control; the T/C under setting [8] was 102 % of control; the T/C under setting [9] is 88 % of control.
As to `COc1cccc(C23CCCCC2=NCC3)c1` (centres undefined), the T/C is, setting by setting: (dose: 25.0 mg/kg/injection, schedule: Q04DX003 (ip), vehicle: saline) 100 % of control; (dose: 50.0 mg/kg/injection, schedule: Q04DX003 (ip), vehicle: saline) 107 % of control; under setting [11], 89 % of control.
With `CCOC(=O)Nc1cc2c(c(N)n1)N=C(CN(C)c1ccccc1)CN2`, the T/C was 101 % of control (dose: 5.0 mg/kg/injection, schedule: Q01DX009 (ip), vehicle: Klucel (hydroxypropylcellulose) (HPC)); 116 % of control (dose: 6.25 mg/kg/injection, schedule: Q01DX009 (ip), vehicle: Klucel (hydroxypropylcellulose) (HPC)); 118 % of control (dose: 12.5 mg/kg/injection, schedule: Q01DX009 (ip), vehicle: Klucel (hydroxypropylcellulose) (HPC)); 98 % of control (dose: 15.0 mg/kg/injection, schedule: Q01DX009 (ip), vehicle: Klucel (hydroxypropylcellulose) (HPC)); 120 % of control (dose: 25.0 mg/kg/injection, schedule: Q01DX009 (ip), vehicle: Klucel (hydroxypropylcellulose) (HPC)); 196 % of control (dose: 50.0 mg/kg/injection, schedule: Q04DX002 (ip), vehicle: Klucel (hydroxypropylcellulose) (HPC)). The T/C reads like this: (dose: 100.0 mg/kg/injection, schedule: Q04DX002 (ip), vehicle: Klucel (hydroxypropylcellulose) (HPC)) 183 % of control; (dose: 200.0 mg/kg/injection, schedule: Q04DX002 (ip), vehicle: Klucel (hydroxypropylcellulose) (HPC)) 96 % of control.
As to `c1ccc(CSSCc2ccccc2)cc1`, the T/C was 100 % of control under setting [4]; 92 % of control under setting [11]; 96 % of control under setting [6]; 88 % of control (dose: 200.0 mg/kg/injection, schedule: Q04DX003 (ip), vehicle: saline); 102 % of control under setting [8]; 92 % of control (dose: 400.0 mg/kg/injection, schedule: Q04DX003 (ip), vehicle: saline).
For the molecule `C1COC(NC2CC3CCC2C3)=N1` (centres undefined), the T/C by setting is: (dose: 6.25 mg/kg/injection, schedule: Q01DX009 (ip), vehicle: saline with Tween-80) 94 % of control; (dose: 6.25 mg/kg/injection, schedule: Q04DX003 (ip), vehicle: saline with Tween-80) 94 % of control; (dose: 12.5 mg/kg/injection, schedule: Q01DX009 (ip), vehicle: saline with Tween-80) 104 % of control; (dose: 12.5 mg/kg/injection, schedule: Q04DX003 (ip), vehicle: saline with Tween-80) 91 % of control; under setting [10], 100 % of control; (dose: 25.0 mg/kg/injection, schedule: Q04DX003 (ip), vehicle: saline with Tween-80) 97 % of control.
Regarding `Cc1ccc(C2NC(=O)N3C(c4ccc(C)cc4)NC(=O)N23)cc1` (centres undefined), the T/C (dose: 100.0 mg/kg/injection, schedule: Q01DX009 (ip), vehicle: gum acacia) is 99 % of control; the T/C (dose: 100.0 mg/kg/injection, schedule: Q04DX003 (ip), vehicle: gum acacia) is 99 % of control; the T/C (dose: 200.0 mg/kg/injection, schedule: Q01DX009 (ip), vehicle: gum acacia) is 102 % of control; the T/C (dose: 200.0 mg/kg/injection, schedule: Q04DX003 (ip), vehicle: gum acacia) is 87 % of control; the T/C (dose: 400.0 mg/kg/injection, schedule: Q01DX009 (ip), vehicle: gum acacia) was 96 % of control; the T/C (dose: 400.0 mg/kg/injection, schedule: Q04DX003 (ip), vehicle: gum acacia) is 92 % of control.
On to `CCOC=Nc1ccc(-n2cnc3c(Cl)ncnc32)cc1C`, for which the T/C is 91 % of control under setting [1] and 98 % of control under setting [3].
Take `O=C(O)c1ccccc1C(NC(=O)N1C(=O)C=CC1=O)NC(=O)N1C(=O)C=CC1=O`: the T/C reads like this: under setting [1], 97 % of control; under setting [2], 97 % of control; under setting [3], 106 % of control.
Consider `O=C1OC(c2ccccc2)CC1NCc1ccccc1` (centres undefined), for which the T/C (dose: 100.0 mg/kg/injection, schedule: Q01DX001 (ip), vehicle: Klucel (hydroxypropylcellulose) (HPC)) was 98 % of control; the T/C (dose: 200.0 mg/kg/injection, schedule: Q01DX001 (ip), vehicle: Klucel (hydroxypropylcellulose) (HPC)) is 101 % of control; the T/C (dose: 400.0 mg/kg/injection, schedule: Q01DX001 (ip), vehicle: Klucel (hydroxypropylcellulose) (HPC)) was 96 % of control.
For `CCOC(=O)c1ccc(NC(=O)C2CC2)cc1`, the T/C under setting [4] was 113 % of control, the T/C under setting [6] was 109 % of control and the T/C under setting [8] is 104 % of control.
Consider `CCCCCCc1c(C(OC)OC)[nH]c(=S)[nH]c1=O`, for which the T/C reads like this: under setting [4], 91 % of control; under setting [5], 96 % of control; under setting [6], 87 % of control; under setting [7], 98 % of control; under setting [8], 87 % of control; under setting [9], 96 % of control.
`Cc1cncn1Cc1ccc([N+](=O)[O-])cc1`: the T/C reads like this: (dose: 25.0 mg/kg/injection, schedule: Q01DX009 (ip), vehicle: saline) 101 % of control and 102 % of control; (dose: 25.0 mg/kg/injection, schedule: Q04DX002 (ip), vehicle: saline) 106 % of control and 115 % of control; (dose: 50.0 mg/kg/injection, schedule: Q01DX009 (ip), vehicle: saline) 98 % of control and 108 % of control; (dose: 50.0 mg/kg/injection, schedule: Q04DX002 (ip), vehicle: saline) 97 % of control and 100 % of control; (dose: 100.0 mg/kg/injection, schedule: Q01DX009 (ip), vehicle: saline) 96 % of control.
